Values joined by “and” are separate entries in the source; they are usually repeats but may differ in a detail not shown here. Identical values can stand only once. Inconclusive results and toxic doses are left out.
System: L1210 leukemia ip in BDF1 mice, survival T/C
Experiment: NCI In Vivo Anticancer Drug Screen. Data for tumor model L1210 Leukemia (intraperitoneal) in B6D2F1 (BDF1) mice
Settings: endpoint: mean survival time, higher = longer survival
Outline: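 Tumor cells were implanted, animals were treated, and survival was followed. The result divides the treated measurement by the vehicle-control measurement.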

[1] = dose: 100.0 mg/kg/injection, schedule: Q01DX001 (ip), vehicle: carboxymethylcellulose (CMC)
[2] = dose: 200.0 mg/kg/injection, schedule: Q01DX001 (ip), vehicle: carboxymethylcellulose (CMC)
[3] = dose: 400.0 mg/kg/injection, schedule: Q01DX001 (ip), vehicle: carboxymethylcellulose (CMC)
[4] = dose: 12.5 mg/kg/injection, schedule: Q01DX009 (ip), vehicle: saline with Tween-80
[5] = dose: 25.0 mg/kg/injection, schedule: Q01DX009 (ip), vehicle: saline with Tween-80
[6] = dose: 100.0 mg/kg/injection, schedule: Q04DX002 (ip), vehicle: saline
[7] = dose: 200.0 mg/kg/injection, schedule: Q04DX002 (ip), vehicle: saline
[8] = dose: 400.0 mg/kg/injection, schedule: Q04DX002 (ip), vehicle: saline
[9] = dose: 50.0 mg/kg/injection, schedule: Q04DX002 (ip), vehicle: Klucel (hydroxypropylcellulose) (HPC)
[10] = dose: 100.0 mg/kg/injection, schedule: Q04DX002 (ip), vehicle: Klucel (hydroxypropylcellulose) (HPC)
[11] = dose: 100.0 mg/kg/injection, schedule: Q01DX001 (ip), vehicle: Klucel (hydroxypropylcellulose) (HPC)
[12] = dose: 100.0 mg/kg/injection, schedule: Q04DX003 (ip), vehicle: saline with Tween-80
[13] = dose: 200.0 mg/kg/injection, schedule: Q04DX003 (ip), vehicle: saline with Tween-80
[14] = dose: 400.0 mg/kg/injection, schedule: Q04DX003 (ip), vehicle: saline with Tween-80
[15] = dose: 50.0 mg/kg/injection, schedule: Q01DX009 (ip), vehicle: saline with Tween-80
[16] = dose: 100.0 mg/kg/injection, schedule: Q01DX001 (ip), vehicle: saline
[17] = dose: 200.0 mg/kg/injection, schedule: Q01DX001 (ip), vehicle: saline
[18] = dose: 400.0 mg/kg/injection, schedule: Q01DX001 (ip), vehicle: saline

For CCOC(=O)C1(C)CCCC1=O (configuration not stated), the T/C (dose: 100.0 mg/kg/injection, schedule: Q01DX009 (ip), vehicle: saline sonified) was 94 % of control, the T/C (dose: 200.0 mg/kg/injection, schedule: Q01DX009 (ip), vehicle: saline sonified) was 97 % of control and the T/C (dose: 400.0 mg/kg/injection, schedule: Q01DX009 (ip), vehicle: saline sonified) was 95 % of control.
Nc1ncnc2c1c(C1=NCCCN1)cn2C1OC(CO)C(O)C1O (configuration not stated) was tested, and the T/C (dose: 12.5 mg/kg/injection, schedule: Q01DX005 (ip), vehicle: saline) was 117 % of control and the T/C (dose: 50.0 mg/kg/injection, schedule: Q01DX005 (ip), vehicle: saline) was 151 % of control.
With C[C@]12C[C@H](O)[C@H]3[C@@H](CCC4=CC(=O)CC[C@@]43C)[C@@H]1CC[C@@H]2C(=O)CF the T/C (dose: 50.0 mg/kg/injection, schedule: Q01DX Z (sc), vehicle: steriod suspending solution) was 95 % of control, the T/C (dose: 250.0 mg/kg/injection, schedule: Q01DX Z (sc), vehicle: steriod suspending solution) was 102 % of control and the T/C (dose: 500.0 mg/kg/injection, schedule: Q01DX Z (sc), vehicle: steriod suspending solution) was 98 % of control.
For ClCc1ccc(-c2ccc(CCl)cc2)cc1, the T/C (dose: 30.0 mg/kg/injection, schedule: Q01DX015 (ip), vehicle: carboxymethylcellulose (CMC)) was 116 % of control, the T/C (dose: 60.0 mg/kg/injection, schedule: Q01DX015 (ip), vehicle: carboxymethylcellulose (CMC)) was 106 % of control and the T/C [1] was 100 % of control. For the same compound, the T/C (dose: 120.0 mg/kg/injection, schedule: Q01DX015 (ip), vehicle: carboxymethylcellulose (CMC)) was 102 % of control, the T/C [2] was 104 % of control and the T/C (dose: 240.0 mg/kg/injection, schedule: Q01DX015 (ip), vehicle: carboxymethylcellulose (CMC)) was 98 % of control. The T/C (dose: 300.0 mg/kg/injection, schedule: Q01DX015 (ip), vehicle: carboxymethylcellulose (CMC)) was 108 % of control and the T/C [3] was 105 % of control.
For Cc1cc(CC(Cl)(C(F)(F)F)C(F)(F)F)cc(CC(Cl)(C(F)(F)F)C(F)(F)F)n1, the T/C [4] was 108 % of control and the T/C [5] was 106 % of control.
With O=C(CCC(C(=O)Nc1ccccc1)C(O)(c1ccccc1)c1ccccc1)Nc1ccccc1 (configuration not stated) the T/C (dose: 100.0 mg/kg/injection, schedule: Q01DX001 (ip), vehicle: other) was 91 % of control, the T/C (dose: 200.0 mg/kg/injection, schedule: Q01DX001 (ip), vehicle: other) was 91 % of control and the T/C (dose: 400.0 mg/kg/injection, schedule: Q01DX001 (ip), vehicle: other) was 89 % of control.
c1cc2c(c3c1CCCC3)CCCC2 was tested, and the T/C (dose: 50.0 mg/kg/injection, schedule: Q01DX001 (ip), vehicle: carboxymethylcellulose (CMC)) was 92 % of control, the T/C (dose: 50.0 mg/kg/injection, schedule: Q01DX009 (ip), vehicle: saline) was 101 % of control and the T/C [1] was 97 % of control. For the same compound, the T/C (dose: 100.0 mg/kg/injection, schedule: Q01DX009 (ip), vehicle: saline) was 94 % of control, the T/C (dose: 100.0 mg/kg/injection, schedule: Q04DX003 (ip), vehicle: saline) was 91 % of control and the T/C [2] was 91 % of control. The T/C (dose: 200.0 mg/kg/injection, schedule: Q04DX003 (ip), vehicle: saline) was 101 % of control and the T/C [3] was 94 % of control.
In the case of CNC(=O)Nc1ccc(C(=O)OCC(C)C)cc1, the T/C (dose: 100.0 mg/kg/injection, schedule: Q01DX009 (ip), vehicle: Klucel (hydroxypropylcellulose) (HPC)) is reported as 104 % of control, the T/C (dose: 200.0 mg/kg/injection, schedule: Q01DX009 (ip), vehicle: Klucel (hydroxypropylcellulose) (HPC)) is reported as 115 % of control and the T/C (dose: 400.0 mg/kg/injection, schedule: Q01DX009 (ip), vehicle: Klucel (hydroxypropylcellulose) (HPC)) is reported as 104 % of control.
In the case of COc1ccc(CCN)cc1OC, the T/C [6] is reported as 106 % of control, the T/C [7] is reported as 100 % of control and the T/C [8] is reported as 100 % of control.
CCOC(=O)/C(C#N)=C/c1cccn1Cc1cc2c(cc1[N+](=O)[O-])OCO2 was tested, and the T/C (dose: 25.0 mg/kg/injection, schedule: Q04DX002 (ip), vehicle: Klucel (hydroxypropylcellulose) (HPC)) was 104 % of control, the T/C [9] was 100 % of control and the T/C [10] was 100 % of control.
With CCCCCCCCCCCCCCCCCC(=O)OCC1(COC(=O)CCCCCCCCCCCCCCCCC)COC(CCCCCCCCCCCCCCCCC)=N1 the T/C [11] was 92 % of control, the T/C (dose: 200.0 mg/kg/injection, schedule: Q01DX001 (ip), vehicle: Klucel (hydroxypropylcellulose) (HPC)) was 95 % of control and the T/C (dose: 400.0 mg/kg/injection, schedule: Q01DX001 (ip), vehicle: Klucel (hydroxypropylcellulose) (HPC)) was 109 % of control.
CC(=O)Oc1c2cccc3c(=O)c4cccc5c4-c(c23)c2c1cccc2c5=O was tested, and the T/C [12] was 95 % of control, the T/C [13] was 95 % of control and the T/C [14] was 101 % of control.
In the case of CC(C)(C)C(=O)c1ccc(-c2ccccc2)cc1, the T/C (dose: 100.0 mg/kg/injection, schedule: Q04DX002 (ip), vehicle: other) is reported as 91 % of control, the T/C (dose: 200.0 mg/kg/injection, schedule: Q04DX002 (ip), vehicle: other) is reported as 94 % of control and the T/C (dose: 400.0 mg/kg/injection, schedule: Q04DX002 (ip), vehicle: other) is reported as 94 % of control.
In the case of COc1ccc(C2=C(c3ccccc3)C(c3ccccc3)=C(c3ccc(OC)cc3)C2=O)cc1, the T/C [1] is reported as 89 % of control, the T/C [2] is reported as 89 % of control and the T/C [3] is reported as 91 % of control.
For O=C(C[n+]1ccccc1)N/N=C/c1ccccc1O, the T/C [4] was 86 % of control, the T/C [5] was 86 % of control and the T/C [15] was 96 % of control.
NC(N)=NC(=O)COc1ccc(Cl)cc1Cl was tested, and the T/C (dose: 100.0 mg/kg/injection, schedule: Q04DX002 (ip), vehicle: saline + alcohol) was 100 % of control and the T/C (dose: 200.0 mg/kg/injection, schedule: Q04DX002 (ip), vehicle: saline + alcohol) was 107 % of control.
For Cc1nc2ccccc2c(Br)c1Br, the T/C [16] was 91 % of control, the T/C [17] was 94 % of control and the T/C [18] was 96 % of control.
With COc1ccc(/C=N/NC(=O)CCCCCCCCC(=O)N/N=C/c2ccc(OC)c(OC)c2)cc1OC the T/C [5] was 98 % of control and 105 % of control, the T/C [15] was 97 % of control and 101 % of control and the T/C (dose: 100.0 mg/kg/injection, schedule: Q01DX001 (ip), vehicle: saline with Tween-80) was 95 % of control. The T/C [6] was 90 % of control, the T/C [12] was 94 % of control and the T/C (dose: 200.0 mg/kg/injection, schedule: Q01DX001 (ip), vehicle: saline with Tween-80) was 114 % of control. For the same compound, the T/C [7] was 97 % of control and 90 % of control, the T/C [13] was 109 % of control and the T/C [8] was 101 % of control and 103 % of control. The T/C [14] was 96 % of control.
For N#Cc1cc(Cl)ccc1Cl, the T/C (dose: 100.0 mg/kg/injection, schedule: Q01DX009 (ip), vehicle: gum acacia) was 100 % of control, the T/C (dose: 100.0 mg/kg/injection, schedule: Q04DX003 (ip), vehicle: gum acacia) was 98 % of control and the T/C (dose: 200.0 mg/kg/injection, schedule: Q01DX009 (ip), vehicle: gum acacia) was 103 % of control. The T/C (dose: 200.0 mg/kg/injection, schedule: Q04DX003 (ip), vehicle: gum acacia) was 95 % of control, the T/C (dose: 400.0 mg/kg/injection, schedule: Q01DX009 (ip), vehicle: gum acacia) was 95 % of control and the T/C (dose: 400.0 mg/kg/injection, schedule: Q04DX003 (ip), vehicle: gum acacia) was 93 % of control.
For N=C(N)c1ccc(OCCCCOc2ccc(NC(=O)Nc3cccc(S(=O)(=O)F)c3)cc2)cc1, the T/C (dose: 25.0 mg/kg/injection, schedule: Q01DX001 (ip), vehicle: Klucel (hydroxypropylcellulose) (HPC)) was 97 % of control, the T/C (dose: 50.0 mg/kg/injection, schedule: Q01DX001 (ip), vehicle: Klucel (hydroxypropylcellulose) (HPC)) was 95 % of control and the T/C [11] was 89 % of control.
In the case of CC(C)=Nc1cccc(B(O)O)c1, the T/C [16] is reported as 98 % of control, the T/C [17] is reported as 88 % of control and the T/C [18] is reported as 95 % of control.
Cc1cc(C)c2c(c1)CC2=O was tested, and the T/C [9] was 96 % of control, the T/C [10] was 112 % of control and the T/C (dose: 200.0 mg/kg/injection, schedule: Q04DX002 (ip), vehicle: Klucel (hydroxypropylcellulose) (HPC)) was 86 % of control.
With CC12CCC(Cl)(CC1)CC2=O the T/C [6] was 95 % of control, the T/C [7] was 95 % of control and the T/C [8] was 98 % of control.
For C=C1C(=O)O[C@H]2C=C(C)[C@H]3[C@@H](OC(C)=O)C[C@@](C)(O)[C@@H]3C[C@H]12, the T/C (dose: 50.0 mg/kg/injection, schedule: Q01DX Z (ip), vehicle: carboxymethylcellulose (CMC)) was 94 % of control.

Source: PubChem BioAssay AID248 (DTP/NCI, 2004)
